Reference: the supplement of paper PMC11451515

Test system: NOMO1
Assay: cell viability relative to DMSO control; higher = less cytotoxic
Conditions: 48 h
Summary of the method: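 Viability values are per-plate percentages of DMSO wells, with background from cell-free wells. Library compounds in DMSO were pin-dosed, in an 11-point threefold series from 47 μM to 0.79 nM, onto NOMO1 or SEM (500 cells/well) or P12-Ichikawa (1000 cells/well) leukemia cells in 1536-well plates (5 μl). Those cells had been adapted for at least four passages in each medium, and CellTiter-Glo One luminescence was read after 48 h at 37°C.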

[1] = RPMI 5 mM glucose + 10% FBS, 0.000781 µM
[2] = RPMI 5 mM glucose + 10% FBS, 0.00234 µM
[3] = RPMI 5 mM glucose + 10% FBS, 0.00702 µM
[4] = RPMI 5 mM glucose + 10% FBS, 0.0211 µM
[5] = RPMI 5 mM glucose + 10% FBS, 0.0632 µM
[6] = RPMI 5 mM glucose + 10% FBS, 0.19 µM
[7] = RPMI 5 mM glucose + 10% FBS, 0.569 µM
[8] = RPMI 5 mM glucose + 10% FBS, 1.71 µM
[9] = RPMI 5 mM glucose + 10% FBS, 5.12 µM
[10] = RPMI 5 mM glucose + 10% FBS, 15.4 µM
[11] = RPMI 5 mM glucose + 10% FBS, 46.1 µM
[12] = HPLM + 10% dialyzed FBS, 0.000781 µM
[13] = HPLM + 10% dialyzed FBS, 0.00234 µM
[14] = HPLM + 10% dialyzed FBS, 0.00702 µM
[15] = HPLM + 10% dialyzed FBS, 0.0211 µM
[16] = HPLM + 10% dialyzed FBS, 0.0632 µM
[17] = HPLM + 10% dialyzed FBS, 0.19 µM
[18] = HPLM + 10% dialyzed FBS, 0.569 µM
[19] = HPLM + 10% dialyzed FBS, 1.71 µM
[20] = HPLM + 10% dialyzed FBS, 5.12 µM
[21] = HPLM + 10% dialyzed FBS, 15.4 µM
[22] = HPLM + 10% dialyzed FBS, 46.1 µM
[23] = RPMI 5 mM glucose + 10% dialyzed FBS, 0.000781 µM
[24] = RPMI 5 mM glucose + 10% dialyzed FBS, 0.00234 µM
[25] = RPMI 5 mM glucose + 10% dialyzed FBS, 0.00702 µM
[26] = RPMI 5 mM glucose + 10% dialyzed FBS, 0.0211 µM
[27] = RPMI 5 mM glucose + 10% dialyzed FBS, 0.0632 µM
[28] = RPMI 5 mM glucose + 10% dialyzed FBS, 0.19 µM
[29] = RPMI 5 mM glucose + 10% dialyzed FBS, 0.569 µM
[30] = RPMI 5 mM glucose + 10% dialyzed FBS, 1.71 µM
[31] = RPMI 5 mM glucose + 10% dialyzed FBS, 5.12 µM
[32] = RPMI 5 mM glucose + 10% dialyzed FBS, 15.4 µM
[33] = RPMI 5 mM glucose + 10% dialyzed FBS, 46.1 µM

Compound	cell viability [1]	cell viability [2]	cell viability [3]	cell viability [4]	cell viability [5]	cell viability [6]	cell viability [7]	cell viability [8]	cell viability [9]	cell viability [10]	cell viability [11]	cell viability [12]	cell viability [13]	cell viability [14]	cell viability [15]	cell viability [16]	cell viability [17]	cell viability [18]	cell viability [19]	cell viability [20]	cell viability [21]	cell viability [22]	cell viability [23]	cell viability [24]	cell viability [25]	cell viability [26]	cell viability [27]	cell viability [28]	cell viability [29]	cell viability [30]	cell viability [31]	cell viability [32]	cell viability [33]
CCOc1ccc(Cc2cc([C@@H]3O[C@H](CO)[C@@H](O)[C@H](O)[C@H]3O)ccc2Cl)cc1	114%	133%	124%	125%	138%	128%	128%	136%	124%	133%	129%	–	–	–	–	–	–	–	–	–	–	–	–	–	–	–	–	–	–	–	–	–	–
O=[S+]([O-])(c1cccc2cnccc12)N1CCCNCC1	–	–	–	–	–	–	–	–	–	–	–	98.7%	124%	136%	136%	132%	147%	139%	136%	130%	116%	51%	–	–	–	–	–	–	–	–	–	–	–
CC1(C)C(N(O)C(=O)Nc2ccc(Cl)cc2)N(c2ccc(Cl)cc2)C(=O)N1CC(=O)N/N=C/C=C/c1ccc([N+](=O)[O-])o1 (centres undefined)	116%	111%	109%	120%	110%	104%	102%	110%	97.4%	104%	75.1%	121%	118%	125%	124%	124%	115%	123%	116%	108%	95.8%	50.2%	106%	107%	103%	124%	122%	121%	111%	111%	108%	117%	71.3%
Cc1onc(-c2ccccc2)c1C(=O)N[C@@H]1C(=O)N2[C@@H]1SC(C)(C)[C@@H]2C(=O)[O-].[Na+]	112%	111%	117%	104%	112%	103%	101%	79.5%	77.7%	84.7%	56.8%	120%	131%	105%	113%	134%	98.5%	95.5%	64.5%	77.8%	51.1%	54.7%	111%	109%	115%	114%	101%	97.4%	98.6%	88.9%	72.2%	67.1%	53.8%
CC(C)(O)/C=C\C(=O)[C@](C)(O)[C@H]1[C@H](O)C[C@]2(C)[C@@H]3CC=C4[C@@H](C=C(O)C(=O)C4(C)C)[C@]3(C)C(=O)C[C@@]12C	106%	102%	95.5%	122%	89.2%	63.4%	30.2%	18.8%	16.1%	9.22%	14.5%	96.2%	115%	126%	116%	111%	74.7%	18.8%	17.3%	14.5%	7.22%	11.9%	101%	110%	108%	110%	99.8%	58.2%	22.1%	16%	18.7%	9.49%	12.2%
OCc1ccc(-c2ccc(-c3ccc(CO)s3)o2)s1	–	–	–	–	–	–	–	–	–	–	–	124%	121%	138%	147%	124%	114%	122%	107%	118%	108%	96.2%	–	–	–	–	–	–	–	–	–	–	–
COc1cc(/C=C/C(=O)O)ccc1O	84.9%	112%	87.8%	93.6%	95.2%	101%	92.2%	95.1%	107%	96.6%	104%	76.1%	90.7%	91.8%	100%	107%	100%	103%	98.8%	82.6%	108%	101%	84.3%	91%	93.9%	93.1%	83.7%	96.3%	95.7%	86.9%	89.9%	92.5%	102%
COc1ncc(-c2ccc3c(Nc4cc(Oc5cc(F)cc(F)c5)cc(C(=O)O)c4)c([S+](=O)([O-])NC4CC4)cnc3c2)c(OC)n1	96.6%	102%	89.9%	95.6%	100%	84.1%	98.3%	92.3%	81.9%	87.7%	85.3%	112%	111%	91.1%	106%	113%	98%	95.7%	99.3%	86.5%	77.7%	87.2%	97.2%	94.4%	94%	89%	92%	102%	89.7%	86.9%	81.1%	79.7%	75.6%
Nc1ncnc2c1c(-c1cccc(OCc3ccccc3)c1)cn2C1CC(CN2CCCC2)C1 (centres undefined)	–	–	–	–	–	–	–	–	–	–	–	113%	133%	124%	124%	141%	134%	119%	90.4%	94.2%	78.1%	36.2%	–	–	–	–	–	–	–	–	–	–	–
